Measurements published in ChEMBL document CHEMBL3436046, “Predictive model for L-type channel inhibition: multichannel block in QT prolongation risk assessment” (J Appl Toxicol, 2012).
Values belong to the compound of their own block, whether it stands above or below them.

Columns and labels:
[1] = target: T1, Voltage-dependent L-type calcium channel subunit alpha-1C (Cavia porcellus, UniProt O35505); test: (§1) Inhibition of L-type calcium channel measured using whole-cell patch clamp in guinea pig ventricular myocytes; format: functional, cell-based, Heart, Ventricular myocyte; set-up: ca sol conc 1.8 mM, temp 20-22 C
[2] = target: T2, Voltage-dependent L-type calcium channel subunit alpha-1C (Rattus norvegicus, UniProt P22002); test: (§2) Inhibition of L-type calcium channel measured using whole-cell patch clamp in rat ventricular myocytes; format: functional, cell-based, Heart, Ventricular myocyte; set-up: ca sol conc 1.8 mM, temp room
[3] = target: T1, Voltage-dependent L-type calcium channel subunit alpha-1C; test: as §1; format: functional, cell-based, Heart, Ventricular myocyte; set-up: ca sol conc 0 mM, temp 36 C
[4] = target: T3, Voltage-dependent L-type calcium channel subunit alpha-1C (Homo sapiens, UniProt Q13936); test: Inhibition of L-type calcium channel measured using […] ovary cells heterologically expressing alpha-1C subunit; format: functional, cell-based, Cricetulus griseus, CHO; set-up: ca sol conc 0 mM, temp room
[5] = target: T1, Voltage-dependent L-type calcium channel subunit alpha-1C; test: as §1; format: functional, cell-based, Heart, Ventricular myocyte; set-up: ca sol conc 2 mM, temp room
[6] = target: T2, Voltage-dependent L-type calcium channel subunit alpha-1C; test: as §2; format: functional, cell-based, Heart, Ventricular myocyte; set-up: ca sol conc 1 mM, temp 20-24 C
[7] = target: T2, Voltage-dependent L-type calcium channel subunit alpha-1C; test: as §2; format: functional, cell-based, Heart, Ventricular myocyte; set-up: ca sol conc 2 mM, temp room
[8] = target: T1, Voltage-dependent L-type calcium channel subunit alpha-1C; test: as §1
[9] = target: T2, Voltage-dependent L-type calcium channel subunit alpha-1C; test: as §2; format: functional, cell-based, Heart, Ventricular myocyte; set-up: ca sol conc 2 mM, temp 36-37 C
[10] = target: T2, Voltage-dependent L-type calcium channel subunit alpha-1C; test: as §2; format: functional, cell-based, Heart, Ventricular myocyte; set-up: ca sol conc 2 mM, temp 36-37 C; remark: listed apart in the source
[11] = target: T1, Voltage-dependent L-type calcium channel subunit alpha-1C; test: as §1; format: functional, cell-based, Heart, Ventricular myocyte; set-up: ca sol conc 2 mM, temp 35.5-36.5 C
[12] = target: T3, Voltage-dependent L-type calcium channel subunit alpha-1C; test: (§3) Inhibition of L-type calcium channel measured using 2-electrode voltage-clamp in Xenopus oocyte heterologically expressing alpha-1C subunit; format: functional, cell-based; set-up: ca sol conc 0 mM, temp room
[13] = target: T3, Voltage-dependent L-type calcium channel subunit alpha-1C; test: as §3; format: functional, cell-based; set-up: ca sol conc 0 mM, temp room; remark: listed apart in the source
[14] = target: T3, Voltage-dependent L-type calcium channel subunit alpha-1C; test: as §3; format: functional, cell-based; set-up: ca sol conc 0 mM, temp room; remark: listed apart in the source
[15] = target: T1, Voltage-dependent L-type calcium channel subunit alpha-1C; test: as §1; format: functional, cell-based, Heart, Ventricular myocyte; set-up: ca sol conc 1.8 mM, temp 20-22 C; remark: listed apart in the source
[16] = target: T1, Voltage-dependent L-type calcium channel subunit alpha-1C; test: as §1; format: functional, cell-based, Heart, Ventricular myocyte; set-up: ca sol conc 1.8 mM, temp 36-37 C
[17] = target: T1, Voltage-dependent L-type calcium channel subunit alpha-1C; test: as §1; format: functional, cell-based, Heart, Ventricular myocyte; set-up: ca sol conc 1.8 mM, temp room
[18] = target: T1, Voltage-dependent L-type calcium channel subunit alpha-1C; test: as §1; format: functional, cell-based, Heart, Ventricular myocyte; set-up: ca sol conc 1.8 mM, temp 32-33 C
[19] = target: T3, Voltage-dependent L-type calcium channel subunit alpha-1C; test: as §3; format: functional, cell-based; set-up: ca sol conc 0 mM, temp room; remark: listed apart in the source
[20] = target: T1, Voltage-dependent L-type calcium channel subunit alpha-1C; test: as §1; format: functional, cell-based, Heart, Ventricular myocyte; set-up: ca sol conc 1.8 mM, temp 20-22 C; remark: listed apart in the source
[21] = target: T1, Voltage-dependent L-type calcium channel subunit alpha-1C; test: as §1; format: functional, cell-based, Heart, Ventricular myocyte; set-up: ca sol conc 1 mM, temp room
[22] = target: T1, Voltage-dependent L-type calcium channel subunit alpha-1C; test: as §1; format: functional, cell-based, Heart, Ventricular myocyte; set-up: ca sol conc 1 mM, temp room; remark: listed apart in the source
[23] = target: T3, Voltage-dependent L-type calcium channel subunit alpha-1C; test: Inhibition of L-type calcium channel measured using […] kidney cells heterologically expressing alpha-1C subunit; format: functional, cell-based, HEK293; set-up: ca sol conc 0 mM, temp 21-24 C
[24] = target: T2, Voltage-dependent L-type calcium channel subunit alpha-1C; test: as §2; format: functional, cell-based, Heart, Ventricular myocyte; set-up: ca sol conc 1.8 mM, temp 22-24 C

T3 sequence (Q13936 whole entry): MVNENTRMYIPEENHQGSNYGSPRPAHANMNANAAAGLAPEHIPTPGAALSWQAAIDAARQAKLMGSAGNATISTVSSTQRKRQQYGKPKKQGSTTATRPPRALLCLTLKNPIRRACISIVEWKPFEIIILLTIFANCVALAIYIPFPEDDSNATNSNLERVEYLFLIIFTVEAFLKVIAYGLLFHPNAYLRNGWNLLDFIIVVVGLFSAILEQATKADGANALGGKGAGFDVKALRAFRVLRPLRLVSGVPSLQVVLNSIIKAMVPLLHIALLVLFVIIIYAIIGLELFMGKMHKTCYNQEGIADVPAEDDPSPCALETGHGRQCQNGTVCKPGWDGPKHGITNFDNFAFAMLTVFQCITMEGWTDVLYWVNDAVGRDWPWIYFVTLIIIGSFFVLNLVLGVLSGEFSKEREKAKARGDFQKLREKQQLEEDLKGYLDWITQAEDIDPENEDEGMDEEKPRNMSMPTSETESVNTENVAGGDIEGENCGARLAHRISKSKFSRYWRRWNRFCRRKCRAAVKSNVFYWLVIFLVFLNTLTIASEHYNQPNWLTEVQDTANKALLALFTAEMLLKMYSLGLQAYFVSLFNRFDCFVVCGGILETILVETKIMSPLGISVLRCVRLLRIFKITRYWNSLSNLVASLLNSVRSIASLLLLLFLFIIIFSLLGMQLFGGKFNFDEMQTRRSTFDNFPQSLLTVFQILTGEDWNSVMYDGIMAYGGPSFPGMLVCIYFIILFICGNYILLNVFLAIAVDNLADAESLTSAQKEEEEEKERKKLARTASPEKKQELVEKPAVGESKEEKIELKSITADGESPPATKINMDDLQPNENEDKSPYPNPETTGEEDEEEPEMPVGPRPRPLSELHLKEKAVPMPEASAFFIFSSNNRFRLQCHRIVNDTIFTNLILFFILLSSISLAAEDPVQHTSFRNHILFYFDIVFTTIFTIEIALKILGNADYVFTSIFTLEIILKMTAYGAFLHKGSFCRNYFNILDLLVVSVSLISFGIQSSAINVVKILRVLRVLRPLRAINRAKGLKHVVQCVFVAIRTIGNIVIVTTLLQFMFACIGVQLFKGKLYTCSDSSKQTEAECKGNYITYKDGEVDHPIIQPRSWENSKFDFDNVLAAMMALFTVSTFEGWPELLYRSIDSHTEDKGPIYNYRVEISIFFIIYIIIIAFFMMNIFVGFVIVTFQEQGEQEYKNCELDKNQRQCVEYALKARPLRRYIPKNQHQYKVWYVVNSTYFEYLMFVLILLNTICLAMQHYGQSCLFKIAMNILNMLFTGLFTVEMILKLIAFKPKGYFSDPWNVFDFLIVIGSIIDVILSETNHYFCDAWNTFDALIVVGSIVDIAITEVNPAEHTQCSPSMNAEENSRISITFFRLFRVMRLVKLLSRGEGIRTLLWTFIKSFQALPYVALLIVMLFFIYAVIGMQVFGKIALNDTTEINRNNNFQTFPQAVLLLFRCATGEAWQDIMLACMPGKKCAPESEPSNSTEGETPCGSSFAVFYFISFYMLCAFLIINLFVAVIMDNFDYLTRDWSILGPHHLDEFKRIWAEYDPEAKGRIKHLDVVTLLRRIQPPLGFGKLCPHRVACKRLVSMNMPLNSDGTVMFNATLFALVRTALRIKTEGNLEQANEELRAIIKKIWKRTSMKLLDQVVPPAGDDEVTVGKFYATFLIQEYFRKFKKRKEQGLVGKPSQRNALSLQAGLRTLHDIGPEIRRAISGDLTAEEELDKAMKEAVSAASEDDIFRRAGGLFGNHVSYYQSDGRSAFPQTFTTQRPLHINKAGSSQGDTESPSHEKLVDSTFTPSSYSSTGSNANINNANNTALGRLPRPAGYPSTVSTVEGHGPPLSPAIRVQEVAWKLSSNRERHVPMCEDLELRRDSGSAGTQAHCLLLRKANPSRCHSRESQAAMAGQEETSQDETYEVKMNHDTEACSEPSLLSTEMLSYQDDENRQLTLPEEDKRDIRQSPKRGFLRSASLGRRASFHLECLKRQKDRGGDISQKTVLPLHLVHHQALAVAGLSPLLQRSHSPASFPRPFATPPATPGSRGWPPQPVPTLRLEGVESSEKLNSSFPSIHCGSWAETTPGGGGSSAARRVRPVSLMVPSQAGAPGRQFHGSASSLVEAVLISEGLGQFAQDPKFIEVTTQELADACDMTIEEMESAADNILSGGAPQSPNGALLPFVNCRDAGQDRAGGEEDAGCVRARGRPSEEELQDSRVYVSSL
T1 sequence (O35505 whole entry): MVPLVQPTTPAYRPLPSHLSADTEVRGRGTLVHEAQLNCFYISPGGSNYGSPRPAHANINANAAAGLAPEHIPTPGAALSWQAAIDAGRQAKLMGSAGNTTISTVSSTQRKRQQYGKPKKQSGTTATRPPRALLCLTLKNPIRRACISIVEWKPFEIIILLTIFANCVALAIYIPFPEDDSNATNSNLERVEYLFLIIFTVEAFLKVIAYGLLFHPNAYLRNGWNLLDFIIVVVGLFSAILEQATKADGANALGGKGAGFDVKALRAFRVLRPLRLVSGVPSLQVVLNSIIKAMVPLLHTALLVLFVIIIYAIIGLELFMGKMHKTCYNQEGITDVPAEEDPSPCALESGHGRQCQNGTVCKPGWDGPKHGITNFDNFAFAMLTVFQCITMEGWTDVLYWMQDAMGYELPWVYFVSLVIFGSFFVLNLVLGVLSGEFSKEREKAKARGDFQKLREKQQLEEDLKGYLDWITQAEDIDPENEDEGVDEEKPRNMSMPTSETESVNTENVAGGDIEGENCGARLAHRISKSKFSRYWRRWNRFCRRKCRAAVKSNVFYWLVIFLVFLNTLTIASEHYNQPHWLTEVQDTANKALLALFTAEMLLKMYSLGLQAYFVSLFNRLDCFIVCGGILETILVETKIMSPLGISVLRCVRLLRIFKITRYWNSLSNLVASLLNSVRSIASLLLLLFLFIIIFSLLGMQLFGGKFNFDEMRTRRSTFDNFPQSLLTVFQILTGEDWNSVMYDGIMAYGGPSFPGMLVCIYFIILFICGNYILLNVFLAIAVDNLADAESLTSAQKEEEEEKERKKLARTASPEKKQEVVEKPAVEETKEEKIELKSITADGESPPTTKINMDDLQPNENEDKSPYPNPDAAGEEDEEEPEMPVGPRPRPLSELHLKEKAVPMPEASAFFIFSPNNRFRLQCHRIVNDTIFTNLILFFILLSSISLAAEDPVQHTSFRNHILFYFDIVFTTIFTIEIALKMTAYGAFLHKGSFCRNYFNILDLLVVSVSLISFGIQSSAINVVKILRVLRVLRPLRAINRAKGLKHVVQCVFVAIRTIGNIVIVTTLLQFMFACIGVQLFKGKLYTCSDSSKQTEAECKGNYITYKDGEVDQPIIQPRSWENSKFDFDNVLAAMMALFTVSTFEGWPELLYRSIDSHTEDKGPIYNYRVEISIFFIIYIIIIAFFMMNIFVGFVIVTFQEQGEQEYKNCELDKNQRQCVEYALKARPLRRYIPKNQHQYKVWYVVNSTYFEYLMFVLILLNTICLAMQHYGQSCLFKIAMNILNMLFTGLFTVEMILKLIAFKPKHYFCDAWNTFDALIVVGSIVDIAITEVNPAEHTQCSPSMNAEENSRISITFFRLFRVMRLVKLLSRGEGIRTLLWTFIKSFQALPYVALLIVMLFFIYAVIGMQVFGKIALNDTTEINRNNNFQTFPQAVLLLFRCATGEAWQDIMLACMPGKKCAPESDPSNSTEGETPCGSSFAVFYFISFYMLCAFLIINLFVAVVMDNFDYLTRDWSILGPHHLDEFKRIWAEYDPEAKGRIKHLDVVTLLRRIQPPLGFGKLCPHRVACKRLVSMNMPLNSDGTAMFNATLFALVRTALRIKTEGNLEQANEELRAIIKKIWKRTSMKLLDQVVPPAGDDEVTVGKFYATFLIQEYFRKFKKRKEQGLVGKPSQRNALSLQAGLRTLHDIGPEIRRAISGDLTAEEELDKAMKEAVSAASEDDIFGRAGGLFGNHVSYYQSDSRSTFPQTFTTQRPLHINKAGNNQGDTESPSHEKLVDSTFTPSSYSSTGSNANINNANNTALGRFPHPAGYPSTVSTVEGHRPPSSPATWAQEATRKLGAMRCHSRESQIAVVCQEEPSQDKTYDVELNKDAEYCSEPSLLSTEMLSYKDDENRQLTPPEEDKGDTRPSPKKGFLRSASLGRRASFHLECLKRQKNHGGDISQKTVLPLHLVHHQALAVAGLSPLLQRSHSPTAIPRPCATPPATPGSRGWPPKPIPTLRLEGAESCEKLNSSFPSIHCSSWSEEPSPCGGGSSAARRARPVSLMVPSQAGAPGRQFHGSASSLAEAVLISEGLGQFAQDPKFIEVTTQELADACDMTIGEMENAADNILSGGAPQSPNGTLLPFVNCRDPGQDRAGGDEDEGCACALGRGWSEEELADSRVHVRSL

IC50 [1]: 441 µM
SMILES: Cc1cccc(CCN2CCC(C(=O)c3ccc(NS(C)(=O)=O)cc3)CC2)n1

IC50 [2]: 0.17 µM
SMILES: CCCC[N+]1(CCCC(=O)c2ccc(F)cc2)CCC(O)(c2ccc(Cl)cc2)CC1 (stereo not drawn)

IC50 [3]: 55 µM
SMILES: Cc1cccc(C)c1N(CCCc1cccnc1)C(=O)[C@@H](C)N

IC50 [4]: 0.07 µM
SMILES: CC1=C(C(=O)OCCCCCCCCCC[N+](C)(C)C)C(c2cccc3nonc23)C(C(=O)OC(C)C)=C(C)N1 (stereo not drawn)

IC50 [5]: 0.0257 µM
SMILES: COc1ccc([C@@H]2Sc3ccccc3N(CCN(C)CCc3ccc(OC)c(OC)c3)C(=O)[C@@H]2OC(C)=O)cc1

SMILES: CN(C)CCC=C1c2ccccc2CCc2ccccc21 [AMITRIPTYLINE]
IC50 [6]: 23.2 µM
IC50 [7]: 3.75 µM

SMILES: CCOC(=O)C1=C(COCCN)NC(C)=C(C(=O)OC)C1c1ccccc1Cl (stereo not drawn) [AMLODIPINE]
IC50 [8]: 0.57 µM

SMILES: CCCCC/C=C\C/C=C\C/C=C\C/C=C\CCCC(=O)O [ARACHIDONIC ACID]
IC50 [9]: 8.5 µM
IC50 [10]: 5.8 µM

IC50 [11]: 20.2 µM
SMILES: CN1CCCC(n2nc(Cc3ccc(Cl)cc3)c3ccccc3c2=O)CC1 (stereo not drawn) [AZELASTINE]

IC50 [12]: 1.2 µM
IC50 [13]: 3.1 µM
SMILES: COC(=O)C1=C(C)NC(C)=C(C(=O)O[C@H]2CCN(Cc3ccccc3)C2)[C@H]1c1cccc([N+](=O)[O-])c1 [BARNIDIPINE]

IC50 [14]: 4.9 µM
IC50 [13]: 13.8 µM
SMILES: COC(=O)C1=C(C)NC(C)=C(C(=O)OC2CCCN(Cc3ccccc3)C2)C1c1cccc([N+](=O)[O-])c1 (stereo not drawn) [BENIDIPINE]

IC50 [15]: 2.6 µM
IC50 [1]: 0.5 µM
SMILES: CC(C)COCC(CN(Cc1ccccc1)c1ccccc1)N1CCCC1 (stereo not drawn) [BEPRIDIL]

IC50 [16]: 60 µM
SMILES: CCCC(=O)N1CCCN(c2nc(N)c3cc(OC)c(OC)cc3n2)CC1 [BUNAZOSIN]

SMILES: c1ccc(C2(c3ccccc3)CC2C2=NCCN2)cc1 (stereo not drawn) [CIFENLINE]
IC50 [17]: 14 µM
IC50 [16]: 30 µM
IC50 [18]: 14.4 µM

IC50 [13]: 5.3 µM
IC50 [19]: 12.7 µM
SMILES: COCCOC(=O)C1=C(C)NC(C)=C(C(=O)OC/C=C/c2ccccc2)C1c1cccc([N+](=O)[O-])c1 (stereo not drawn) [CILNIDIPINE]

IC50 [20]: 46.9 µM
IC50 [1]: 16 µM
SMILES: COc1cc(N)c(Cl)cc1C(=O)NC1CCN(CCCOc2ccc(F)cc2)CC1OC (stereo not drawn) [CISAPRIDE]

IC50 [6]: 64.5 µM
SMILES: CN(C)CCCC1(c2ccc(F)cc2)OCc2cc(C#N)ccc21 (stereo not drawn) [CITALOPRAM]

IC50 [21]: 0.0788 µM
IC50 [22]: 0.0071 µM
SMILES: CCCC(=O)OCOC(=O)C1=C(C)NC(C)=C(C(=O)OC)C1c1cccc(Cl)c1Cl (stereo not drawn) [CLEVIDIPINE]

IC50 [6]: 11.6 µM
SMILES: CN(C)CCCN1c2ccccc2CCc2ccc(Cl)cc21 [CLOMIPRAMINE]

IC50 [17]: 20 µM
IC50 [23]: 0.59 µM
SMILES: Clc1ccccc1C(c1ccccc1)(c1ccccc1)n1ccnc1 [CLOTRIMAZOLE]

IC50 [24]: 12 µM
SMILES: O=c1c(-c2ccc(O)cc2)coc2cc(O)ccc12 [DAIDZEIN]

IC50 [6]: 11.7 µM
SMILES: CNCCCN1c2ccccc2CCc2ccccc21 [DESIPRAMINE]
